Values after ≈ are worked out from the molar mass of the structure shown.
Key:
Assay type in all cases: functional
Klebsiella pneumoniae = assay: In vitro antibacterial activity against Klebsiella X26
Pseudomonas aeruginosa = assay: In vitro antibacterial activity against Pseudomonas PS72
Haemophilus influenzae = assay: In vitro antibacterial activity against Haemophilus influenza C.L
Klebsiella aerogenes = assay: In vitro antibacterial activity against Enterobacter aerogenes C32
Staphylococcus aureus = assay: In vitro antibacterial activity against Staphylococcus aureus X1.1
Streptococcus pneumoniae = assay: In vitro antibacterial activity against Streptococcus pneumoniae PARK
Escherichia coli = assay: In vitro antibacterial activity against Escherichia coli EC14
[1] = system: Staphylococcus epidermidis; assay: In vitro antibacterial activity against Staphylococcus epidermidis 222

| MIC (Klebsiella pneumoniae) [µg/mL] | MIC (Pseudomonas aeruginosa) [µg/mL] | MIC (Haemophilus influenzae) [µg/mL] | MIC (Klebsiella aerogenes) [µg/mL] | MIC (Staphylococcus aureus) [µg/mL] | MIC (Streptococcus pneumoniae) [µg/mL] | MIC (Escherichia coli) [µg/mL] | MIC [1] [µg/mL] | Structure (SMILES) |
| --- | --- | --- | --- | --- | --- | --- | --- | --- |
| 0.06 (≈ 0.12 µM) | 128 (≈ 257 µM) | 0.25 (≈ 0.501 µM) | 1 (≈ 2.01 µM) | 8 (≈ 16 µM) | 0.5 (≈ 1 µM) | 0.25 (≈ 0.501 µM) | 8 (≈ 16 µM) | C=CCCCO/N=C(/C(=O)N[C@H]1CN2CC(S(C)(=O)=O)=C(C(=O)O)N2C1=O)c1csc(N)n1 |
| > 128 | > 128 | > 128 | > 128 | > 128 | > 128 | > 128 | > 128 | N#CC1=C(C(=O)O)N2C(=O)[C@@H](NC(=O)Cn3cnnn3)CN2C1 |
| 0.03 (≈ 0.0604 µM) | > 128 | 0.25 (≈ 0.503 µM) | 0.5 (≈ 1.01 µM) | 8 (≈ 16.1 µM) | 0.125 (≈ 0.252 µM) | 0.125 (≈ 0.252 µM) | 32 (≈ 64.4 µM) | C=CCO/N=C(/C(=O)N[C@H]1CN2CC(S(=O)(=O)CC=C)=C(C(=O)O)N2C1=O)c1csc(N)n1 |
| 0.03 (≈ 0.0531 µM) | > 128 | 0.125 (≈ 0.221 µM) | 0.5 (≈ 0.884 µM) | 8 (≈ 14.1 µM) | 0.06 (≈ 0.106 µM) | 0.25 (≈ 0.442 µM) | 8 (≈ 14.1 µM) | CCCS(=O)(=O)C1=C(C(=O)O)N2C(=O)[C@@H](NC(=O)/C(=N/OCCBr)c3csc(N)n3)CN2C1 |
| 0.125 (≈ 0.256 µM) | 128 (≈ 262 µM) | 1 (≈ 2.05 µM) | 0.25 (≈ 0.512 µM) | > 128 | 2 (≈ 4.09 µM) | 0.06 (≈ 0.123 µM) | > 128 | CS(=O)(=O)C1=C(C(=O)O)N2C(=O)[C@@H](NC(=O)/C(=N/OCC(=O)O)c3csc(N)n3)CN2C1 |
| 0.125 (≈ 0.267 µM) | > 128 | 0.25 (≈ 0.534 µM) | 0.5 (≈ 1.07 µM) | 32 (≈ 68.3 µM) | 0.25 (≈ 0.534 µM) | 0.25 (≈ 0.534 µM) | 32 (≈ 68.3 µM) | C#CCO/N=C(/C(=O)N[C@H]1CN2CC(S(C)(=O)=O)=C(C(=O)O)N2C1=O)c1csc(N)n1 |
| 0.125 (≈ 0.247 µM) | > 128 | 1 (≈ 1.97 µM) | 0.5 (≈ 0.986 µM) | 16 (≈ 31.6 µM) | 0.25 (≈ 0.493 µM) | 0.25 (≈ 0.493 µM) | 32 (≈ 63.1 µM) | CCS(=O)(=O)C1=C(C(=O)O)N2C(=O)[C@@H](NC(=O)/C(=N/OCCCl)c3csc(N)n3)CN2C1 |
| 0.25 (≈ 0.539 µM) | 64 (≈ 138 µM) | 0.06 (≈ 0.129 µM) | 0.125 (≈ 0.27 µM) | > 128 | 16 (≈ 34.5 µM) | 0.03 (≈ 0.0647 µM) | > 128 | CC(C)(O/N=C(/C(=O)N[C@H]1CN2CC(C#N)=C(C(=O)O)N2C1=O)c1csc(N)n1)C(=O)O |
| 0.03 (≈ 0.0612 µM) | 128 (≈ 261 µM) | 0.125 (≈ 0.255 µM) | 0.125 (≈ 0.255 µM) | 8 (≈ 16.3 µM) | 0.06 (≈ 0.122 µM) | 0.03 (≈ 0.0612 µM) | 16 (≈ 32.6 µM) | CS(=O)(=O)C1=C(C(=O)O)N2C(=O)[C@@H](NC(=O)/C(=N/OCCCF)c3csc(N)n3)CN2C1 |
| 0.03 (≈ 0.0595 µM) | > 128 | 0.125 (≈ 0.248 µM) | 0.25 (≈ 0.496 µM) | 16 (≈ 31.7 µM) | 0.125 (≈ 0.248 µM) | 0.125 (≈ 0.248 µM) | 32 (≈ 63.4 µM) | CCCS(=O)(=O)C1=C(C(=O)O)N2C(=O)[C@@H](NC(=O)/C(=N/OCCF)c3csc(N)n3)CN2C1 |
| 0.06 (≈ 0.119 µM) | > 128 | 0.5 (≈ 0.991 µM) | 0.5 (≈ 0.991 µM) | 16 (≈ 31.7 µM) | 0.125 (≈ 0.248 µM) | 0.25 (≈ 0.495 µM) | 64 (≈ 127 µM) | CCS(=O)(=O)C1=C(C(=O)O)N2C(=O)[C@@H](NC(=O)/C(=N/OCSC)c3csc(N)n3)CN2C1 |
| 0.015 (≈ 0.0301 µM) | > 128 | 0.125 (≈ 0.251 µM) | 0.25 (≈ 0.501 µM) | 16 (≈ 32.1 µM) | 0.06 (≈ 0.12 µM) | 0.06 (≈ 0.12 µM) | 32 (≈ 64.2 µM) | CCS(=O)(=O)C1=C(C(=O)O)N2C(=O)[C@@H](NC(=O)/C(=N/OCC3CC3)c3csc(N)n3)CN2C1 |
| 0.03 (≈ 0.0612 µM) | > 128 | 0.25 (≈ 0.51 µM) | 0.125 (≈ 0.255 µM) | 16 (≈ 32.6 µM) | 0.125 (≈ 0.255 µM) | 0.06 (≈ 0.122 µM) | 32 (≈ 65.2 µM) | CCS(=O)(=O)C1=C(C(=O)O)N2C(=O)[C@@H](NC(=O)/C(=N/OCCF)c3csc(N)n3)CN2C1 |
| 0.03 (≈ 0.063 µM) | 128 (≈ 269 µM) | 0.25 (≈ 0.525 µM) | 0.06 (≈ 0.126 µM) | 16 (≈ 33.6 µM) | 0.06 (≈ 0.126 µM) | 0.015 (≈ 0.0315 µM) | 16 (≈ 33.6 µM) | CS(=O)(=O)C1=C(C(=O)O)N2C(=O)[C@@H](NC(=O)/C(=N/OCCF)c3csc(N)n3)CN2C1 |
| 8 (≈ 18.7 µM) | > 128 | 8 (≈ 18.7 µM) | > 128 | 1 (≈ 2.34 µM) | 0.125 (≈ 0.293 µM) | > 128 | 4 (≈ 9.36 µM) | N#CC1=C(C(=O)O)N2C(=O)[C@@H](NC(=O)CSc3cc(Cl)ccc3Cl)CN2C1 |
| 0.015 (≈ 0.0317 µM) | 128 (≈ 271 µM) | 0.125 (≈ 0.265 µM) | 0.25 (≈ 0.529 µM) | 8 (≈ 16.9 µM) | 0.125 (≈ 0.265 µM) | 0.125 (≈ 0.265 µM) | 16 (≈ 33.9 µM) | CCCO/N=C(/C(=O)N[C@H]1CN2CC(S(C)(=O)=O)=C(C(=O)O)N2C1=O)c1csc(N)n1 |
